{"source": "patent US20100004159A1", "about": "“SUBSTITUTED IMIDAZOLONE DERIVATIVES, PREPARATIONS AND USES” (GENFIT, priority 2006, published 2010)", "key": {"[1]": {"biological_target": "T1, angiotensin II AT1 receptor (Oryctolagus cuniculus, UniProt P34976)", "T1 construct": "tissue CEREP; host or cells: rabbit thoracic aorta rings", "T1 sequence (P34976 1-359)": "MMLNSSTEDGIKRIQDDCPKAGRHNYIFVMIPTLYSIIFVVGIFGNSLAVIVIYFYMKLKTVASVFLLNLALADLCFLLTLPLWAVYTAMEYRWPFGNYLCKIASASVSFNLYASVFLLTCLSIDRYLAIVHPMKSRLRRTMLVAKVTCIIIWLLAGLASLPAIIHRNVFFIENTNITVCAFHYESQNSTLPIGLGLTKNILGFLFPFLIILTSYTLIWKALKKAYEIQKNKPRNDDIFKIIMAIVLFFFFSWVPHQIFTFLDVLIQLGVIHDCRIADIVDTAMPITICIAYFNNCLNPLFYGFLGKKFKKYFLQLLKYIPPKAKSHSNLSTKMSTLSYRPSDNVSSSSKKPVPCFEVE", "assay": "Ex vivo agonist/antagonist activity on isolated rabbit thoracic aorta rings", "settings": "0.3, 3 and 30 μM; for agonist activity (contraction): non-treated rabbit thoracic aorta; for antagonist activity (inhibition of contractile response to angiotensin II): rabbit thoracic aorta previously exposed to angiotensin II 0.003 μM", "method": "This activity is either agonist or antagonist and was evaluated ex vivo on isolated organs. Agonist activity corresponds to tissue contraction. Antagonist activity corresponds to tissue dilatation.\nThe ex vivo test was performed at the CEREP (Celle L'Evescault, France (86)) following a protocol based on Pendleton et al. (Pendleton R G et al.,1989). Rabbit thoracic aorta rings with intact endothelium were suspended in baths for organs containing an oxygenated physiologic saline solution (95% O2 and 5% CO2) and preheated (37° C.) having the following composition (mM): NaCl 118.0, KCl 4.7, MgSO4 1.2, CaCl2 2.5, KH2PO4 1.2, NaHCO3 25.0, and glucose 11.0 (pH 7.4).\nBenextramine (1 μM), propranolol (1 μM), pyrilamine (1 μM), atropine (1 μM), methysergide (1 μM), and captopril (0.1 μM) were also used in all carried out experiments to block respectively α-adrenergic, β-adrenergic, histaminic H1 muscarinic, and 5-HT2 receptors as well as to prevent peptide degradation. The tissues were bound to a force sensor suitable for isometric tension recording. They were stretched to a resting tension of 4 g, then stabilized for 60 minutes. During the stabilization, they were washed several times and the tension was adjusted. The experiments were carried out using semi-automatic systems of isolated organs with eight organ baths and multichannel data acquisition.\nThe tissues were exposed to a submaximal concentration of the reference agonist (angiotensin II at 0.003 μM) to verify the response and obtain a control contractile response.\nAfter several washing operations and after having recovered the basal tone, the tissues were exposed to increasing concentrations of compounds according to the invention or the same agonist. The different concentrations were added cumulatively, each one was left in contact with the tissues until a stable response was reached and for a maximum of 30 minutes. If an agonist type response (contraction) was registered, the reference antagonist (Saralasine at 0.01 μM) was tested regarding the highest concentration of the compounds according to the invention to confirm the involvement of the AT1 receptors in the response.\nAfter stabilization of the contraction induced by angiotensin II, increasing concentrations of compounds according to the invention or of the reference antagonist (Saralasine) were added cumulatively. Each concentration was left in contact with the tissues until a stable response was observed and for a maximum of 30 minutes.\nThe inhibiting effect of the compounds according to the invention on the contraction induced by the angiotensin 11 indicates antagonist activity on AT1 receptors."}, "[2]": {"biological_target": "T2, hPPARα (Homo sapiens, UniProt Q07869)", "T2 construct": "DNA fragments amplified by PCR and corresponding to the DEF domains of human PPARα, PPARγ, and PPARδ nuclear receptors; expressed in transfected cells; host or cells: COS-7", "T2 sequence (Q07869 239-466 limits assumed)": "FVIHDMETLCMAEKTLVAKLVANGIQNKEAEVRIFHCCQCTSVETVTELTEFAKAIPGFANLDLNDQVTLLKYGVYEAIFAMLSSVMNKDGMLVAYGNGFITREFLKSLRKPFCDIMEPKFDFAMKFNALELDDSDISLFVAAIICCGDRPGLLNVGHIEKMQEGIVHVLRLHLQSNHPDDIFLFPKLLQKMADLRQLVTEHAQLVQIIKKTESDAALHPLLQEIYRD", "assay": "Gal4-hPPARα transactivation in COS-7 cells (luciferase)", "type": "cell-based", "settings": "COS-7 cells transfected pGal4-hPPAR, 0.01 to 100 μM", "method": "(§1) The activation of PPARs was evaluated in vitro using a monkey kidney fibroblast line (COS-7) by measuring the transcriptional activity of chimeras made up of the DNA binding domain of the Gal4 transcription factor of yeast and of the binding domain to the ligand of the different PPARs. The compounds were tested at doses of between 0.01 and 100 μM on Gal4-PPARα, γ, and δ chimeras.\n(§2) COS-7 cells came from ATCC (American type culture collection) and were cultivated in a DMEM medium supplemented with 10% (vol/vol) of fetal calf serum, 100 U/ml of penicillin (Gibco, Paisley, UK) and 2 mM of L-Glutamine (Gibco, Paisley, UK). The cells were incubated at 37° C. under humid atmosphere containing 5% CO2.\n(§3) The plasmids Gal4(RE)_TkpGL3, pGal4-hPPARα, pGal4-hPPARγ, pGal4-hPPARδ and pGal4-φ have been described in the literature (Raspe E et al., 1999). The constructions pGal4-hPPARα, pGal4-hPPARγ, and pGal4-hPPARδ were obtained by cloning, in the pGal4-φ vector, DNA fragments amplified by PCR and corresponding to the DEF domains of human PPARα, PPARγ, and PPARδ nuclear receptors.\n(§4) The COS-7 cells in suspension were transfected with 150 ng of DNA per well, with a pGal4-PPAR/Gal4(RE)_TkpGL3 ratio of 1/10, in presence of 10% fetal calf serum. The cells were then plated in 96-well plates (4×10^4 cells/well), then incubated for 24 hours at 37° C. Activation with the test compounds was performed for 24 hours at 37° C. in a medium without serum. At the end of the experiment, the cells were lysed and the luciferase activity was determined using the Steady-Lite™ HTS (Perkin Elmert) or the Steady Glow Luciferase kit (Promega), in accordance with the provider's recommendations.\n(§5) The compounds according to the invention were tested at doses between 0,01 and 100 μM on the 3 PPAR isoforms. The results obtained are presented in detail under FIG. 1a."}, "[3]": {"biological_target": "T3, hPPARγ (Homo sapiens, UniProt P37231)", "T3 construct": "DNA fragments amplified by PCR and corresponding to the DEF domains of human PPARα, PPARγ, and PPARδ nuclear receptors; expressed in transfected cells; host or cells: COS-7", "T3 sequence (P37231 238-503 limits assumed)": "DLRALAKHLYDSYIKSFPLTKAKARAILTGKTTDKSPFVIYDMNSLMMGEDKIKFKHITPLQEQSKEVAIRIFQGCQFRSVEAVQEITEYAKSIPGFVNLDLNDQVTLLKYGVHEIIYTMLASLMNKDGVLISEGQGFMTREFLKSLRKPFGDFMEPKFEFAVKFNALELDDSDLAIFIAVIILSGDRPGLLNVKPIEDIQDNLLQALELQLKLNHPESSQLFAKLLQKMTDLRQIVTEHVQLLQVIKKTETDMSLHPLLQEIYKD", "assay": "Gal4-hPPARγ transactivation in COS-7 cells (luciferase)", "type": "cell-based", "settings": "COS-7 cells transfected pGal4-hPPAR, 0.01 to 100 μM", "method": "as §1, §2, §3, §4, §5"}, "[4]": {"test_system": "PPARs target genes", "assay": "Expression of PPAR target genes by quantitative RT-PCR in db/db mouse tissue", "type": "in vivo", "settings": "db/db mice, 50 mpk for 28 days", "method": "Samples of hepatic tissue and adipose epididymal tissue were taken and frozen immediately in liquid nitrogen then conserved at −80° C. for later analysis.\nTotal RNA was extracted from liver fragments by using a NucleoSpine 96 RNA kit (Macherey Nagel, Hoerdt, France) according to the manufacturer's instructions.\nThe total RNA of the adipose tissue was extracted from tissue fragments with a method using guanidine thiocyanate. The tissues were briefly homogenized in 5 mL of a lysis buffer (guanidine thiocyanate 4M, EDTA pH8 10 mM, Tris HCl pH 7.5 50 mM and b-mercaptoethanol 1.4%) using polytron. To separate the layers, 500 μL of sodium acetate 2M pH4, 5 mL of phenol, and 2 mL of a mixture of chloroform/isoamylic alcohol (49:1) were added. After centrifugation, the aqueous layer was collected and the RNA was precipitated in the presence of isopropanol. After a second precipitation, the RNA was washed with ethanol 70°, dried, then suspended again in an volume of water free of RNase. A step of purification/DNase I treatment of the RNA was then carried out by using NucleoSpin® 96 RNA kit (Macherey-Nagel) according to the manufacturer's instructions. 1 μg of total RNA (quantified by using the Ribogreen RNA quantification kit (Molecular Probes)) was then reverse-transcribed into cDNA by means of a 1 hour reaction at 37° C. in a total volume of 20 μl containing a buffer 1× (Sigma), 1.5 mM of DTT, 0.18 mM, of dNTPs (Promega), 200 ng of pdN6 (Amersham), 30 U of RNase inhibitor (Sigma), and 1 μl of MMLV-RT (Sigma). The quantitative PCR experiments were carried out using the MyiQ Single-Color Real-Time PCR Detection System (Biorad, Marnes-la-Coquette, France) and were performed using the iQ SYBR Green Supermix kit according to the manufacturer's recommendations, in 96-well plates in 5 μl of a diluted reverse transcription solution at a hybridization temperature of 55° C. Primer pairs specific to the studied genes were used:\nThe quantity of emitted fluorescence is directly proportional to the quantity of cDNA present at the beginning of the reaction and amplified during the PCR. For each target studied, a range of solutions is performed with successive dilutions of a mixture made up of a few μl of different reverse-transcription solutions. The relative levels of expression of each target are thus determined by using efficiency curves obtained with the points relative to the range.\nThe expression levels of the genes of interest were then normalized, in the hepatic tissue with respect to the level expression of reference gene 36B4 (whose specific primers are: sense primer: 5′-[…]-3′ (SEQ ID NO: 15) and antisense primer: 5′-[…]-3′ (SEQ ID NO: 16)), and in the adipose tissue with respect to reference gene 18S (whose specific primers are: sense primer: 5′-[…]-3′ (SEQ ID NO: 17) and antisense primer: 5′-[…]-3′ (SEQ ID NO: 18)). The induction factor was then calculated for each sample. The higher the induction factor is, the more the compound promotes gene expression. The final result is represented as the average of the induction values within each experimental group."}}}
{"smiles": "CCCCC1=NC2(CCCC2)C(=O)N1Cc1ccc(-c2cc(OC(C)(C)C(=O)O)ccc2CC)cc1", "note": "[Compound 80, 2-butyl-1-[(3′-((1-carboxy-1,1-dimethylmethyl)oxy)-6′-ethyl-biphenyl-4-yl)methyl]-4-spirocyclopentyl-1H-imidazol-5(4H)-one]", "values": [{"measurement": "melting point", "result": 143, "unit": "°C"}, {"measurement": "agonist activity (contraction)", "setting": "[1]", "result": "do not induce contraction"}, {"measurement": "antagonist activity (inhibition of contractile response to angiotensin II)", "setting": "[1]", "result": "inhibiting effect of the contractile response of the reference agonist"}]}
{"smiles": "CCCCC1=NC2(CCCCC2)C(=O)N1Cc1ccc(-c2ccc(OC(C)(C)C(=O)O)cc2)cc1", "note": "[Compound 25, 2-butyl-1-[(4′-((1-carboxy-1,1-dimethylmethyl)oxy)biphenyl-4-yl)methyl]-4-spirocyclohexyl-1H-imidazol-5(4H)-one]", "values": [{"measurement": "activation of hPPARα (luciferase activity)", "setting": "[2]", "result": "activates only hPPARα"}, {"measurement": "melting point", "result": "75 to 77", "unit": "°C"}, {"measurement": "activation of hPPARγ (luciferase activity)", "setting": "[3]", "result": "activates only hPPARα"}]}
{"smiles": "CCCCC1=NC2(CCCCC2)C(=O)N1Cc1ccc(-c2cccc(OC(C)C(=O)O)c2)cc1", "note": "(centres unmarked) [Compound 53]", "values": [{"measurement": "melting point", "result": 85, "unit": "°C"}, {"measurement": "agonist activity (contraction)", "setting": "[1]", "result": "do not induce contraction"}, {"measurement": "antagonist activity (inhibition of contractile response to angiotensin II)", "setting": "[1]", "result": "inhibiting effect of the contractile response of the reference agonist"}]}
{"smiles": "CCCCC1=NC2(CCCC2)C(=O)N1Cc1ccc(-c2ccc(OC(C)(C)C(=O)O)cc2)cc1", "note": "[Compound 2, 2-butyl-1-[(4′-((1-carboxy-1,1-dimethylmethyl)oxy)biphenyl-4-yl)methyl]-4-spirocyclopentyl-1H-imidazol-5(4H)-one]", "values": [{"measurement": "melting point", "result": 180, "unit": "°C"}, {"measurement": "hepatic expression of the gene coding for CPT1 b", "setting": "[4]", "result": "significant increase"}, {"measurement": "hepatic expression of the gene coding for PDK-4", "setting": "[4]", "result": "significant increase"}, {"measurement": "expression of the gene coding for ApoCIII", "setting": "[4]; liver", "result": "significant decrease"}, {"measurement": "expression of the gene coding for FBb", "setting": "[4]; liver", "result": "significant decrease"}]}
